The values below come from patent publication US20240252652A1, “PROTEINS HAVING UNNATURAL AMINO ACIDS AND METHODS OF USE” (The Regents of the University of California, priority 2021, published 2024).

The test system of test [1] is Afb-Z complex. The test is described as follows: Cross-linking of MBP-Z24SFY and Afb4A-7X in live E. coli cells. It counts as cell-based. To be noted: 6 h expression, Western blot. From the text: To determine which amino acid residues could react with SFY via proximity-enabled reactivity directly in cells, we coexpressed in E. coli the Z protein and an affibody (Afb) specifically binding it. Based on the crystal structure of Afb-Z complex, we introduced SFY at site 24 of the Z protein and various natural residues at site 7 of the affibody (FIG. 11D), placing the two residues in close proximity upon Afb-Z binding. (Wang et al. J. Am Chem. Soc. 140:4995-4999 (2018)). After expression of Afb(24SFY) and Z(7X) (X=target residue) for 6 h. cells were lysed and analyzed with Western blot under denatured conditions (FIG. 11E). Crosslinking bands corresponding to the adduct of Afb and Z were detected for target residue His. Tyr, and Lys, for both Mm-tRNA^Pyl/MmSFYRS and Ma-tRNA^Pyl/MaSFYRS. We then purified 6×His-tagged Z and Afb proteins from cells and analyzed with SDS-PAGE. Consistently, a protein band corresponding to the cross-linked Z with Afb was clearly observed for Afb-7Lys. Afb-7His, and Afb-7Tyr (FIG. 11E). We further tested if SFY could crosslink with these residues in mammalian cells. […] (Liu et al. J. Am Chem. 141:9458-9462 (2019)). We incorporated SFY at site 103 of GST and mutated residue 107 to various target residues. HEK293T cells expressing these GST mutants were lysed and Western blotted to detect covalent GST dimer formation (FIG. 11G). […]
For orientation: Immunoblotting shows a protein as a band on a membrane.

In test [2] the test system is m^6A modified RNA. In words: GRIP-seq (high-throughput sequencing). It counts as cell-based, human. From the text:
To detect endogenous m^6A sites in mammalian cells throughout the transcriptome, we developed GRIP-seq through combining GRIP for m^6A with high-throughput sequencing, enabling global identification of m^6A sites in vivo with single-nucleotide resolution (FIG. 12A). In brief. HEK293T cells expressing YTH-397SFY protein (FIG. 19A) were lysed and treated with RNase to partially digest RNA into short fragments. After GRIP for these cell lysates (FIG. 19A), the purified protein-RNA cross-links were treated with proteinase K to release the cross-linked RNA fragments, which were converted into a cDNA library through adapting the enhanced CLIP protocol and then subjected to high-throughput sequencing. All m^6A sites cross-linked by YTH-397SFY protein in vivo would be captured and identified by reverse transcription termination at the upstream cross-linked nucleotides. Van Nostrand et al. Nat. Methods 13:508-514 (2016)
We generated four pairs of GRIP-seq libraries. For each pair, we generated one library for the INPUT sample, which represents the RNA fragments from the whole cell lysate, and one library for the IP sample, which represents the RNA fragments cross-linked with the purified YTH proteins. […] For each library, around 10 to 35 million reads were obtained (data not shown). After removing adaptors, we first mapped the reads to the transcriptome. […]

Molecules are shown by their SMILES.

`COc1ccc(C[C@H](N)C(=O)O)cc1S(=O)(=O)F` [SFY, (S)-1-carboxy-2-(3-(fluorosulfonyl)-4-methoxyphenyl)ethan-1-aminium]: the “target residues giving crosslinking bands (adduct of Afb and Z)” value in test [1] is “detected for target residue His. Tyr, and Lys”. The “RNA nucleotides cross-linked in vivo” value in test [2] is “all four RNA nucleotides”.
